# Data from patent US20200147217A1, “FUCOIDAN-BASED THERAGNOSTIC COMPOSITION” (National Cancer Center, priority 2018, published 2020).
# Tests used:
# [1] = system: HT1080 human fibrosarcoma-transplanted animal model; assay: Tumor-targeting fluorescence imaging after intravenous injection; type: in vivo, mice
# Method: In Example 11, in order to analyze a tumor-targeting effect of a photosensitizer-fucoidan conjugate, an experiment was performed, in which the conjugate is intravenously administered to an experimental animal and a fluorescence image is taken.
# Phosphate buffer (negative control), a free photosensitizer (free Ce6), or a photosensitizer-fucoidan conjugate (Ce6-Fucoidan) was injected intravenously, respectively, into an HT1080 human fibrosarcoma-transplanted animal model, and fluorescence images were taken with an IVIS imaging machine at 5 minutes and 24 hours after the injection (λex 660/20 nm, λem 710/40 nm). […] In FIG. 19B, fluorescence image signal values of the tumor tissues are quantified to compare the amount of photosensitizer accumulated in the tumor tissues. […] FIG. 19C illustrates results obtained by allowing mice to be euthanized, obtaining spleen, kidney, liver, and lung tissues, and identifying ex vivo fluorescence images thereof. […] FIG. 19D illustrates results obtained by freezing the obtained tumor tissues to prepare frozen sections, and then identifying, with a confocal microscope, a degree of penetration of the photosensitizer into each tumor tissue.
# [2] = system: HT1080 subcutaneous xenograft tumor; assay: Tumor growth inhibition in HT1080 xenograft model; type: in vivo, Nude mice (Balb/c nude); conditions: 5 mg Ce6 equivalent/kg i.v., +PDT 670 nm, 20 J/cm^2
# Method: A photodynamic therapeutic effect caused by a photosensitizer-fucoidan conjugate was evaluated in a tumor-transplanted animal model. A tumor model into which HT1080 cancer cells are subcutaneously xenografted was injected intravenously with a free photosensitizer (free Ce6) or Ce6-Fucoidan, and light irradiation (PDT) was performed on the tumor site using a 670 nm laser. To evaluate an antitumor effect, the tumor size was measured daily for 10 days, and differences between the respective groups were analyzed. For the control experimental animals, phosphate buffer containing no photosensitizer was injected intravenously.
# HT1080, a human fibrosarcoma cell line, was obtained from the American Type Culture Collection (ATCC, USA). The HT1080 cells were cultured, under conditions of 37° C., 5% carbon dioxide, and standard humidity, in Eagle's Minimum Essential Media (MEM) medium supplemented with 10% fetal bovine serum (FBS) and 1% penicillin/streptomycin. Nude mice (Balb/c nude) were subcutaneously injected with HT1080 cancer cells as much as 5×10^6 cells/100 μL, and after 5 to 7 days, it was checked whether subcutaneous tumors are produced. […] The tumor size was measured until Day 10 to prepare a tumor growth graph, and the tumor size was compared between the respective groups. […]
substance,measurement,setting,value
chlorin e6 [free Ce6],fluorescence signal caused by the photosensitizer in tumor frozen sections,"[1]; confocal microscope, 24 hours after administration",hardly observed
same,fluorescence image signal in tumor tissues,"[1]; intravenous, 24 hours after injection, IVIS",no fluorescence image signal even in tumor tissues
same,retention in the body,"[1]; intravenous, up to 24 hours, fluorescence imaging",hardly remains in the body at 24 hours
same,tumor growth inhibitory effect compared with the control,[2],no statistically significant tumor growth inhibitory effect
